We go through 6 compounds from patent publication US20010047099A1, “4-aminopicolinates and their use as herbicides” (priority 2000, published 2001).

Like-named read-outs stand apart in the source and are kept apart here.

Series [1] has as its system field bindweed (Convolvulus arvensis). Briefly: Range & Pasture Crop Testing (postemergence track sprayer). The format is in vivo. Particulars: for GR80 CONAR: Table 10, clover pasture, postemergence. In a few lines:
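Postemergence track-sprayer application at 187 L/ha, compounds formulated in 97:3 acetone:DMSO with 0.25% X-77, five rates (X serially diluted to 1/16×). Visual percent control (0–100 scale, burn down) rated 3 weeks after treatment; GR50/GR80 derived by probit analysis.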

Series [2] relates to blackgrass (Alopecurus myosuroides). Briefly: Postemergence herbicidal activity. The format is in vivo. The note with it: post-emergence, 336 h. The procedure, abridged:
(§1)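 Foliar spray at 1st–2nd true leaf; 1 ppm ≈ 1 g/Ha. Carrier: acetone/water/IPA/DMSO plus crop oil concentrate and Triton X-155. Greenhouse, sub-irrigated. Visual rating vs untreated at 2 wk, 0 = no injury, 100 = complete kill.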

The test system of series [3] is velvetleaf (Abutillon theophrasti). Put plainly: Postemergence herbicidal activity. The format is in vivo. The note with it: Abutilon theophrasti, post-emergence, 336 h, Table 2, rate 125 ppm, after 2 weeks, read-out: POSTMERGENCE HERBICIDAL ACTIVITY % CONTROL ABUTH. In a few lines:
as §1

Series [4] concerns viola (Viola tricolor). Briefly: Postemergence herbicidal activity. The format is in vivo. Particulars: post-emergence, 336 h. In a few lines: as §1
In series [5] the test system is wild oats (Avena fatua). Briefly: Postemergence herbicidal activity. Particulars: post-emergence, 336 h. The class given is in vivo. The procedure, abridged: as §1
Series [6] relates to crabgrass (Digitaria sanguinalis). Briefly: Postemergence herbicidal activity. The class given is in vivo. Particulars: post-emergence, 336 h. In a few lines:
as §1

In series [7] the test system is barnyardgrass (Echinochloa crus-galli). Briefly: Postemergence herbicidal activity. Particulars: for inhibition at 125 ppm: Echinochloa crus-galli, post-emergence, 336 h, Table 2, rate 125 ppm, after 2 weeks, read-out: POSTMERGENCE HERBICIDAL ACTIVITY % CONTROL ECHCG; for post emergent evaluation - % control ECHCG: Table 3, weeds in rice, rate 250 ppm. The class given is in vivo. The procedure, abridged:
as §1

Series [8] concerns pigweed (Amaranthus retroflexus). Put plainly: Postemergence herbicidal activity. The format is in vivo. Particulars: Amaranthus retroflexus, post-emergence, 336 h, Table 2, rate 125 ppm, after 2 weeks, read-out: POSTMERGENCE HERBICIDAL ACTIVITY % CONTROL AMARE. The procedure, abridged:
as §1

Series [9] deals with Rox orange sorghum (sorghum bicolor). Put plainly: Postemergence herbicidal activity. The format is in vivo. Particulars: post-emergence, 336 h. In a few lines:
as §1

Series [10] deals with giant foxtail (Setaria faberi). Briefly: Postemergence herbicidal activity. The format is in vivo. The note with it: post-emergence, 336 h. In a few lines:
as §1

Series [11] concerns lambsquarters (Chenopodium album). Put plainly: Postemergence herbicidal activity. The note with it: for inhibition at 125 ppm: Chenopodium album, post-emergence, 336 h, Table 2, rate 125 ppm, after 2 weeks, read-out: POSTMERGENCE HERBICIDAL ACTIVITY % CONTROL CHEAL. The format is in vivo. The procedure, abridged: as §1
Setting [12] is: Table 2, rate 125 ppm, after 2 weeks, read-out: POSTMERGENCE HERBICIDAL ACTIVITY % CONTROL ALOMY.
Setting [13] is: Table 2, rate 125 ppm, after 2 weeks, read-out: POSTMERGENCE HERBICIDAL ACTIVITY % CONTROL VIOTR.
[14] abbreviates: Table 2, rate 125 ppm, after 2 weeks, read-out: POSTMERGENCE HERBICIDAL ACTIVITY % CONTROL AVEFA.
The mark [15] stands for this setting: Table 2, rate 125 ppm, after 2 weeks, read-out: POSTMERGENCE HERBICIDAL ACTIVITY % CONTROL DIGSA.
The mark [16] stands for this setting: Table 2, rate 125 ppm, after 2 weeks, read-out: POSTMERGENCE HERBICIDAL ACTIVITY % CONTROL SORBI.
Setting [17] is: Table 2, rate 125 ppm, after 2 weeks, read-out: POSTMERGENCE HERBICIDAL ACTIVITY % CONTROL SETFA.

Turning to `Nc1cc(Cl)nc(C(=O)O)c1Cl` [Compound 1, 4-Amino-3,6-dichloropyridine-2-carboxylic acid], in series [1] (Table 8, salts of Compound 1, dose for 80 percent control), the “Post-emergent GR80 CONAR” value is reported as 59 g/Ha. The inhibition at 125 ppm in [2] (read-out: PO[…] % CONTROL ALOMY, Table 2, rate 125 ppm, after 2 weeks, read-out: POSTMERGENCE HERBICIDAL ACTIVITY % CONTROL ALOMY) was determined as 50%; in series [3] (read-out: PO[…] % CONTROL ABUTH) it was 70%; in [4] (read-out: PO[…] % CONTROL VIOTR, Table 2, rate 125 ppm, after 2 weeks, read-out: POSTMERGENCE HERBICIDAL ACTIVITY % CONTROL VIOTR), 80%; in series [5] (read-out: PO[…] % CONTROL AVEFA, Table 2, rate 125 ppm, after 2 weeks, read-out: POSTMERGENCE HERBICIDAL ACTIVITY % CONTROL AVEFA) it was 50%; in [6] (read-out: PO[…] % CONTROL DIGSA, Table 2, rate 125 ppm, after 2 weeks, read-out: POSTMERGENCE HERBICIDAL ACTIVITY % CONTROL DIGSA), 60%; in series [7] (read-out: PO[…] % CONTROL ECHCG) it was 45%. Further, the inhibition at 125 ppm in series [8] (read-out: PO[…] % CONTROL AMARE) worked out at 95%; in series [9] (read-out: PO[…] % CONTROL SORBI, Table 2, rate 125 ppm, after 2 weeks, read-out: POSTMERGENCE HERBICIDAL ACTIVITY % CONTROL SORBI), 50%; in [10] (read-out: PO[…] % CONTROL SETFA, Table 2, rate 125 ppm, after 2 weeks, read-out: POSTMERGENCE HERBICIDAL ACTIVITY % CONTROL SETFA), 75%; in series [11] (read-out: PO[…] % CONTROL CHEAL) it was 100%. In addition, the “post emergent evaluation - % control ECHCG” value in series [7] was 75%.
By melting point is commonly meant the temperature, or range, at which the solid turns liquid. Turning to `COC(=O)c1nc(Cl)cc(N)c1Cl` [Compound 3, methyl 4-amino-3,6-dichloropyridine-2-carboxylate], the melting point is 134 to 135 °C. Moreover, the “GR80 CONAR” value in series [1] was found to be 127.7 g/ha.
As to `CCOC(=O)c1nc(Cl)cc(N)c1Cl` [Compound 4, ethyl 4-amino-3,6-dichloropyridine-2-carboxylate], the melting point lay within 98 to 99 °C. In addition, the “GR80 CONAR” value in [1] was determined as 59 g/ha. In addition, the inhibition at 125 ppm in series [2] (setting [12]) was determined as 40%. The inhibition at 125 ppm in series [3] was 70%. Besides, the inhibition at 125 ppm in [4] (setting [13]) worked out at 70%. The inhibition at 125 ppm in series [5] (setting [14]) was determined as 40%. For the same compound, the inhibition at 125 ppm in series [6] (setting [15]) was 70%. In addition, in [7], the inhibition at 125 ppm was 50%. In addition, the inhibition at 125 ppm in series [8] was found to be 100%. For the same compound, the inhibition at 125 ppm in [9] (setting [16]) was 40%. In addition, in [10] (setting [17]), the inhibition at 125 ppm is 75%. In series [11], the inhibition at 125 ppm amounted to 100%.
Compound `Nc1cc(Br)nc(C(=O)O)c1Cl` [Compound 14, 4-Amino-6-bromo-3-chloropyridine-2-carboxylic acid] gave a melting point of 182 to 183 °C. Moreover, in series [2] (setting [12]), the inhibition at 125 ppm amounted to 50%. The inhibition at 125 ppm in series [3] turned out to be 85%. Moreover, in [4] (setting [13]), the inhibition at 125 ppm is 75%. The inhibition at 125 ppm in [5] (setting [14]) was found to be 40%. Further, the inhibition at 125 ppm in series [6] (setting [15]) came out at 65%. Further, in series [7], the inhibition at 125 ppm is 65% and the “post emergent evaluation - % control ECHCG” value is reported as 65%. The inhibition at 125 ppm in [8] was 90%. In addition, the inhibition at 125 ppm in [9] (setting [16]) turned out to be 60%. Also, the inhibition at 125 ppm in series [10] (setting [17]) turned out to be 65%. In addition, in series [11], the inhibition at 125 ppm came out at 95%. In series [11] (Table 5, rate 250 ppm), the “Post-emergent Evaluation - % control CHEAL” value is on record as 70%.
Take `Nc1c(F)c(Cl)nc(C(=O)O)c1Cl` [Compound 19, 4-Amino-3,6-dichloro-5-fluoropyridine-2-carboxylic acid]: the melting point was 214 °C (dec.). Moreover, the inhibition at 125 ppm in series [2] (setting [12]) is 20%. Also, the inhibition at 125 ppm in series [3] is 50%. In addition, in [4] (setting [13]), the inhibition at 125 ppm amounted to 50%. For the same compound, the inhibition at 125 ppm in [5] (setting [14]) was found to be 20%. The inhibition at 125 ppm in series [6] (setting [15]) was 30%. Moreover, the inhibition at 125 ppm in series [7] came out at 10%. In series [8], the inhibition at 125 ppm was found to be 60%. Moreover, the inhibition at 125 ppm in series [9] (setting [16]) is 10%. Besides, the inhibition at 125 ppm in [10] (setting [17]) worked out at 20%. Besides, the inhibition at 125 ppm in [11] was determined as 95%.
The compound `COc1c(C(=O)O)nc(Br)c(Cl)c1N` [Compound 42, 4-Amino-6-bromo-5-chloro-3-methoxypyridine-2-carboxylic acid] came in with a melting point of 154 to 156 °C.
